Data on 5 molecules can be found in patent US9051275B2, “4-[-2-[[5-methyl-1-(2-naphtalenyl)-1H-pyrazol-3-yl]oxy]ethyl]morpholine hydrochloride polymorphs and solvates” (Laboratories Del Dr. Esteve, S.A., priority 2010, dated 2015).

One series deals with sigma-1 (σ-1) receptor (Homo sapiens, UniProt Q99720). The settings on record: cited from earlier work.
For series [1] the following is noted: treatment and prevention of chronic and acute pain, particularly neuropathic pain; cited from earlier work.
The nature of series [2]: 1H NMR check of the stability of the salt in phase I samples. It is filed as physicochemical. As to conditions: several samples of phase I from different crystallizations. The method, then:
In addition, several samples of phase I were analyzed by ^1H NMR in order to check the stability of the salt.

A short description of series [3]: Pressure: tablets of P027 phase I in a hydraulic press, PXRD analysis. It is filed as physicochemical. The method, then: Tablets of P027 phase I were prepared in a hydraulic press at three different pressures (5, 7.5 and 10 tons) for three different times (5, 30 and 90 minutes) [see Table 24].
The solid samples obtained were analyzed by PXRD. […] FIG. 19 illustrates the PXRD pattern of a phase I form obtained by applying a pressure of […] to P027 for 90 minutes.

A short description of series [4]: Grinding of P027 phase I with catalytic solvent in a ball mill, PXRD analysis. It is filed as physicochemical. The procedure:
Approximately 40 mg of P027 phase I were transferred to a ball mill container together with catalytic quantities of the relevant solvent (three drops). The P027 phase I and the solvent were grinded at a maximum frequency of 30 s^−1 for 30 minutes (see Table 23).
The solid samples obtained were analyzed by PXRD. […] FIG. 18 illustrates the PXRD pattern of a phase I form obtained from grinding P027 together with dichloromethane.

Series [5] can be described thus: Dissolution and absorption profile in vivo compared with the related base. The settings on record: compared with its related base.
Series [6] in a line: Descriptive solubility of the P027 compound. It is filed as physicochemical.
Series [7] in a line: Solubility of P027 in different solvents at room temperature (visual, successive solvent additions). In kind it is physicochemical. As to conditions: thermodynamic from solid. The method, then: In order to plan the crystallization screening, […] table 6 using the following methodology (table 7): […] solvent and successive additions (initially 0.2 mL and finally 0.5 mL) of solvent until the solid was completely dissolved or up to a maximum of 8 mL were performed. After each solvent addition the suspension was vigorously stirred for 10-15 minutes and visually inspected to determine if the solid was completely dissolved.

For series [8] the following is noted: drying for 4 hours at 60° C., 80° C. and 100° C.
Another series addresses sigma 2 (σ-2) site (Homo sapiens, UniProt Q5BJF2). The settings on record: cited from earlier work.
For a further series, the target named is sigma 1 (σ-1) site (Homo sapiens, UniProt Q99720). As to conditions: cited from earlier work.
sigma 1 (σ-1) site, sequence (Q99720 whole entry): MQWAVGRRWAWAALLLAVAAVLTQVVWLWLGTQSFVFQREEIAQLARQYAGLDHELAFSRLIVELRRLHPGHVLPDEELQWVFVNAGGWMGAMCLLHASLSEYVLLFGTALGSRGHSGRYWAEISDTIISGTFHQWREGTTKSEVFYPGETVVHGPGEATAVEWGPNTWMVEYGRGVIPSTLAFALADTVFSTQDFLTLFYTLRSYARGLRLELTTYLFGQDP

sigma 2 (σ-2) site, sequence (Q5BJF2 whole entry): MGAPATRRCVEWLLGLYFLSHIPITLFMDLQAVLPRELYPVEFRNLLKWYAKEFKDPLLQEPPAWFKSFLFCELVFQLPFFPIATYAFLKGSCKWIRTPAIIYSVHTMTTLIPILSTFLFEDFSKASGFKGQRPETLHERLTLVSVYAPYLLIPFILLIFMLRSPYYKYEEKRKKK
sigma-1 (σ-1) receptor, sequence (Q99720 whole entry): as the sequence (Q99720 whole entry) above

As to `Cc1cc(OCCN2CCOCC2)nn1-c1ccc2ccccc2c1` [4-[2-[[5-methyl-1-(2-naphthalenyl)-1H-pyrazol-3-yl]oxy]ethyl]morpholine], the “sigma-1 (σ-1) receptor antagonism, selectivity” value at sigma-1 (σ-1) receptor is recorded as “highly selective sigma-1 (σ-1) receptor antagonist”. Moreover, the analgesic activity entry in [1] is recorded as “strong analgesic activity”.

For `Cc1cc(OCCN2CCOCC2)nn1-c1ccc2ccccc2c1.Cl` [P027 phase I, 4-[2-[[5-methyl-1-(2-naphthalenyl)-1H-pyrazol-3-yl]oxy]ethyl]morpholine hydrochloride phase I crystalline form], in series [2], the “stability of the salt (1H NMR)” value is given as “no signs of the lost of HCl or decomposition”. The “phase stability under pressure (PXRD)” value in series [3] (5, 7.5 and 10 tons for 5, 30 and 90 minutes) is reported as “stable under pressure”; in series [3] (pressure of 30 tons for 90 minutes (FIG. 19)), “consistent with the standard phase I PXRD pattern demonstrating the phase stability”. Besides, the “phase stability after grinding (PXRD)” value is “stable after grinding” in series [4] (ball mill, three drops of solvent (Table 23), 30 s^-1 for 30 minutes) and “consistent with the standard phase I PXRD pattern demonstrating the phase stability” in series [4] (grinding together with dichloromethane (FIG. 18)).

On to `Cc1cc(OCCN2CCOCC2)nn1-c1ccc2ccccc2c1.Cl` [P027, 4-[2-[[5-methyl-1-(2-naphthalenyl)-1H-pyrazol-3-yl]oxy]ethyl]morpholine hydrochloride], for which, in series [5], the “dissolution and absorption profile in vivo” value is “better dissolution and absorption profile in vivo than its related base”. For the same molecule, the “solubility in 1N hydrochloric acid” value in series [6] (1N hydrochloric acid) is on record as “freely soluble”. Moreover, the “solubility in 1N sodium hydroxide” value in series [6] (1N sodium hydroxide) was “practically insoluble”. Also, in series [6] (acetone), the solubility in acetone result is given as “slightly soluble”. Further, in [6] (dimethyl sulphoxide), the “solubility in dimethyl sulphoxide” value is “freely soluble”. Besides, the solubility in ethanol result in series [6] (ethanol) is listed as “sparingly soluble”. Moreover, the “solubility in ethyl acetate” value in series [6] (ethyl acetate) is recorded as “practically insoluble”. For the same molecule, the solubility in methanol entry in [6] (methanol) was “freely soluble”. Also, in series [6] (water), the solubility in water entry is recorded as “very soluble”. Also, the solubility in series [7] (organic solvent or mixture, 1,1,1-Trichloroethane, room temperature) was < 1200 µg/mL; in [7] (organic solvent or mixture, 1,2-Dichloroethane, room temperature) it was 15000 to 25000 µg/mL; in series [7] (organic solvent or mixture, 2-Butanol, solid was dissolved at 60° C., left at room temperature, no solid observed) it was 3000 to 4000 µg/mL; in series [7] (organic solvent or mixture, 3-Pentanone, solid was dissolved at 80° C., left at room temperature, no solid observed) it was 1000 to 2000 µg/mL; in series [7] (organic solvent or mixture, Acetone, room temperature) it was 4000 to 5000 µg/mL; in series [7] (organic solvent or mixture, Acetonitrile, solid was dissolved at 60° C., left at room temperature, no solid observed), 10000 to 20000 µg/mL. Further, the solubility in series [7] (organic solvent or mixture, Butyl amine, room temperature) was > 50000 µg/mL; in [7] (organic solvent or mixture, Chlorobenzene, room temperature) it was < 1200 µg/mL; in [7] (organic solvent or mixture, Chloroform, room temperature) it was > 50000 µg/mL; in [7] (organic solvent or mixture, Cyclohexane, room temperature), < 1200 µg/mL; in [7] (organic solvent or mixture, Dichloromethane, room temperature) it was > 50000 µg/mL; in series [7] (organic solvent or mixture, Diethoxymethane, room temperature) it was < 1200 µg/mL. In addition, the solubility in [7] (organic solvent or mixture, Diisopropyl ether, room temperature) was < 1200 µg/mL; in series [7] (organic solvent or mixture, Dimethoxymethane, room temperature) it was < 1200 µg/mL; in [7] (organic solvent or mixture, Dimethylcarbonate, solid was dissolved at 80° C., left at room temperature, no solid observed), 1000 to 2000 µg/mL; in [7] (organic solvent or mixture, Dimethylformamide, room temperature), > 50000 µg/mL; in [7] (organic solvent or mixture, Dimethylsulfoxide, room temperature), > 50000 µg/mL; in [7] (organic solvent or mixture, Dioxane, solid was dissolved at 80° C., left at room temperature, no solid observed), 1000 to 2000 µg/mL. Besides, the solubility was 15000 to 25000 µg/mL in series [7] (organic solvent or mixture, Ethanol, room temperature); < 1200 µg/mL in series [7] (organic solvent or mixture, Ethyl acetate, room temperature); < 1200 µg/mL in series [7] (organic solvent or mixture, Isobutyl acetate, room temperature); 4000 to 5000 µg/mL in series [7] (organic solvent or mixture, Isopropanol, solid was dissolved at 60° C., left at room temperature, no solid observed); < 1200 µg/mL in series [7] (organic solvent or mixture, Isopropyl acetate, room temperature); > 50000 µg/mL in series [7] (organic solvent or mixture, Methanol, room temperature). Further, the solubility is < 1200 µg/mL in series [7] (organic solvent or mixture, Methyl acetate, room temperature); 2000 to 4000 µg/mL in series [7] (organic solvent or mixture, Methyl ethyl ketone, solid was dissolved at 60° C., left at room temperature, no solid observed); < 1200 µg/mL in series [7] (organic solvent or mixture, Methyl isobutyl ketone, room temperature); < 1200 µg/mL in series [7] (organic solvent or mixture, Methyl tert-butyl ether, room temperature); 25000 to 50000 µg/mL in [7] (organic solvent or mixture, N,N-Dimethylacetamide, room temperature); 25000 to 50000 µg/mL in series [7] (organic solvent or mixture, Nitromethane, room temperature). The solubility in [7] (organic solvent or mixture, Propyl acetate, room temperature) is < 1200 µg/mL; in series [7] (organic solvent or mixture, Pyridine, room temperature), 25000 to 50000 µg/mL; in series [7] (organic solvent or mixture, Tetrahydrofuran, room temperature) it was < 1200 µg/mL; in [7] (organic solvent or mixture, Toluene, room temperature), < 1200 µg/mL; in series [7] (organic solvent or mixture, Triethylamine, room temperature), < 1200 µg/mL; in series [7] (organic solvent or mixture, Xylene, room temperature) it was < 1200 µg/mL. Also, the solubility in [7] (organic solvent or mixture, n-Butanol, solid was dissolved at 60° C., left at room temperature, no solid observed) is 5000 to 10000 µg/mL; in series [7] (organic solvent or mixture, n-Heptane, room temperature), < 1200 µg/mL; in [7] (organic solvent or mixture, n-Hexane, room temperature) it was < 1200 µg/mL; in series [7] (Water, room temperature), > 50000 µg/mL.

`C1COCCO1.Cc1cc(OCCN2CCOCC2)nn1-c1ccc2ccccc2c1.Cl` [dioxane solvate, 4-[2-[[5-methyl-1-(2-naphthalenyl)-1H-pyrazol-3-yl]oxy]ethyl]morpholine hydrochloride solvate with dioxane]: the “solid form after drying (PXRD)” value in series [8] is reported as “transformation to Phase I was observed”.

Take SKF 10047: on sigma 2 (σ-2) site, the “affinity for the sigma 2 (σ-2) site” value is reported as “micromolar”. On sigma 1 (σ-1) site, the “affinity for the sigma 1 (σ-1) site” value was “nanomolar”.

A word on the solubility: it is the dissolved amount per volume that the medium holds.
